Experimental data published in the NIST ThermoML archive (doi:10.1016/j.jct.2016.12.029).

Assay: xn = mol fraction of the nth substance listed
Conditions: Gas, Buoyancy - hydrostatic balance with magnetic suspension - one sinker

C=C(F)C(F)(F)F [2,3,3,3-tetrafluoro-1-propene] + CCC
Conditions	mass density [kg/m3]
265.46 K, 101.2 kPa, x1 = 1	5.404
265.48 K, 207.2 kPa, x1 = 1	11.507
265.55 K, 106.5 kPa, x1 = 0.8116	5.018
265.56 K, 107.5 kPa, x1 = 0.583	4.254
265.57 K, 104 kPa, x1 = 0.0906	2.433
265.57 K, 181.7 kPa, x1 = 0.8116	8.775
265.57 K, 198.3 kPa, x1 = 0.583	8.052
265.57 K, 206.2 kPa, x1 = 0.0906	4.954
265.58 K, 299.3 kPa, x1 = 0.0906	7.374
265.59 K, 295.1 kPa, x1 = 0.583	12.343
265.6 K, 249 kPa, x1 = 0.8116	12.31
270.36 K, 101 kPa, x1 = 1	5.279
270.38 K, 164.6 kPa, x1 = 1	8.792
270.38 K, 250.3 kPa, x1 = 1	13.798
270.4 K, 103.2 kPa, x1 = 0.2546	2.918
270.41 K, 182.2 kPa, x1 = 0.2546	5.239
270.42 K, 267 kPa, x1 = 0.2546	7.839
270.44 K, 102.4 kPa, x1 = 0.0906	2.353
270.44 K, 194.1 kPa, x1 = 0.0906	4.555
270.44 K, 338.6 kPa, x1 = 0.0906	8.243
270.45 K, 102.6 kPa, x1 = 0.583	3.972
270.45 K, 215 kPa, x1 = 0.583	8.58
270.47 K, 349 kPa, x1 = 0.583	14.488
270.5 K, 105.1 kPa, x1 = 0.8116	4.852
270.5 K, 182.6 kPa, x1 = 0.8116	8.631
270.5 K, 286.6 kPa, x1 = 0.8116	14.015
275.39 K, 106.2 kPa, x1 = 1	5.448
275.4 K, 208.6 kPa, x1 = 1	11.064
275.41 K, 188.7 kPa, x1 = 0.2546	5.334
275.41 K, 306 kPa, x1 = 0.2546	8.898
275.42 K, 303.7 kPa, x1 = 1	16.657
275.43 K, 404.2 kPa, x1 = 0.2546	12.054
275.45 K, 102.2 kPa, x1 = 0.583	3.894
275.45 K, 198.4 kPa, x1 = 0.583	7.744
275.46 K, 103.9 kPa, x1 = 0.0906	2.338
275.46 K, 196 kPa, x1 = 0.0906	4.504
275.46 K, 282.9 kPa, x1 = 0.0906	6.633
275.47 K, 107.9 kPa, x1 = 0.8116	4.886
275.47 K, 211 kPa, x1 = 0.8116	9.844
275.47 K, 300.7 kPa, x1 = 0.583	12.066
275.47 K, 374.9 kPa, x1 = 0.0906	8.996
275.49 K, 325.2 kPa, x1 = 0.8116	15.724
275.49 K, 415.1 kPa, x1 = 0.583	17.223
280.28 K, 103.6 kPa, x1 = 1	5.208
280.29 K, 176.6 kPa, x1 = 1	9.076
280.29 K, 274 kPa, x1 = 1	14.527
280.29 K, 356.2 kPa, x1 = 1	19.43
280.31 K, 101.5 kPa, x1 = 0.2546	2.757
280.31 K, 195.7 kPa, x1 = 0.2546	5.424
280.31 K, 360.4 kPa, x1 = 0.2546	10.374
280.31 K, 476.4 kPa, x1 = 0.2546	14.119
280.32 K, 279.7 kPa, x1 = 0.2546	7.895
280.33 K, 202 kPa, x1 = 0.583	7.713
280.34 K, 102.8 kPa, x1 = 0.583	3.835
280.34 K, 300.9 kPa, x1 = 0.583	11.781
280.34 K, 401.2 kPa, x1 = 0.583	16.148
280.35 K, 481.2 kPa, x1 = 0.583	19.822
280.36 K, 103.6 kPa, x1 = 0.8116	4.599
280.36 K, 106.5 kPa, x1 = 0.0906	2.352
280.37 K, 190.7 kPa, x1 = 0.8116	8.666
280.37 K, 207.3 kPa, x1 = 0.0906	4.678
280.38 K, 294.7 kPa, x1 = 0.8116	13.792
280.39 K, 315.2 kPa, x1 = 0.0906	7.287
280.4 K, 369 kPa, x1 = 0.8116	17.665
280.4 K, 425 kPa, x1 = 0.0906	10.088
285.27 K, 258.8 kPa, x1 = 1	13.34
285.28 K, 104.7 kPa, x1 = 1	5.162
285.28 K, 164.2 kPa, x1 = 1	8.23
285.28 K, 358.5 kPa, x1 = 1	19.078
285.29 K, 306.8 kPa, x1 = 0.2546	8.517
285.29 K, 414.7 kPa, x1 = 0.2546	11.796
285.29 K, 520.3 kPa, x1 = 0.2546	15.183
285.3 K, 104 kPa, x1 = 0.2546	2.771
285.3 K, 204 kPa, x1 = 0.2546	5.541
285.32 K, 104.6 kPa, x1 = 0.583	3.829
285.32 K, 198.9 kPa, x1 = 0.583	7.432
285.32 K, 309.1 kPa, x1 = 0.583	11.855
285.32 K, 414.1 kPa, x1 = 0.583	16.308
285.33 K, 524.2 kPa, x1 = 0.583	21.282
285.35 K, 103.9 kPa, x1 = 0.0906	2.256
285.35 K, 107.3 kPa, x1 = 0.8116	4.677
285.35 K, 203.4 kPa, x1 = 0.8116	9.079
285.36 K, 205.6 kPa, x1 = 0.0906	4.552
285.37 K, 298.4 kPa, x1 = 0.0906	6.733
285.37 K, 311 kPa, x1 = 0.8116	14.287
285.38 K, 402.5 kPa, x1 = 0.0906	9.29
285.38 K, 413.6 kPa, x1 = 0.8116	19.58
285.39 K, 494.1 kPa, x1 = 0.0906	11.653
290.25 K, 583.7 kPa, x1 = 0.583	23.524
290.38 K, 102.2 kPa, x1 = 1	4.937
290.39 K, 184.5 kPa, x1 = 1	9.113
290.4 K, 203.9 kPa, x1 = 0.583	7.494
290.4 K, 308.8 kPa, x1 = 1	15.792
290.4 K, 421.2 kPa, x1 = 1	22.298
290.41 K, 103.5 kPa, x1 = 0.583	3.727
290.41 K, 300.6 kPa, x1 = 0.583	11.287
290.41 K, 403.8 kPa, x1 = 0.583	15.532
290.41 K, 496.6 kPa, x1 = 0.583	19.555
290.42 K, 102.2 kPa, x1 = 0.2546	2.673
290.42 K, 202.4 kPa, x1 = 0.2546	5.395
290.42 K, 297.9 kPa, x1 = 0.2546	8.09
290.42 K, 393.4 kPa, x1 = 0.2546	10.9
290.43 K, 490.8 kPa, x1 = 0.2546	13.893
290.44 K, 106.8 kPa, x1 = 0.8116	4.568
290.44 K, 199.7 kPa, x1 = 0.8116	8.728
290.44 K, 298.5 kPa, x1 = 0.8116	13.363
290.44 K, 586.4 kPa, x1 = 0.2546	16.977
290.46 K, 104.6 kPa, x1 = 0.0906	2.225
290.46 K, 208.6 kPa, x1 = 0.0906	4.52
290.46 K, 314.2 kPa, x1 = 0.0906	6.95
290.46 K, 380.2 kPa, x1 = 0.8116	17.392
290.46 K, 409.5 kPa, x1 = 0.0906	9.237
290.46 K, 465.4 kPa, x1 = 0.8116	21.81
290.46 K, 539.6 kPa, x1 = 0.0906	12.53
295.4 K, 101.7 kPa, x1 = 1	4.829
295.4 K, 196.9 kPa, x1 = 1	9.565
295.4 K, 400.6 kPa, x1 = 1	20.565
295.4 K, 600.7 kPa, x1 = 1	32.885
295.41 K, 305.3 kPa, x1 = 1	15.255
295.41 K, 510.2 kPa, x1 = 1	27.092
295.43 K, 213.4 kPa, x1 = 0.2546	5.607
295.44 K, 312 kPa, x1 = 0.2546	8.352
295.44 K, 420 kPa, x1 = 0.2546	11.485
295.44 K, 526.9 kPa, x1 = 0.2546	14.734
295.45 K, 511.2 kPa, x1 = 0.583	19.692
295.45 K, 638.2 kPa, x1 = 0.2546	18.298
295.46 K, 105.6 kPa, x1 = 0.583	3.727
295.46 K, 202.1 kPa, x1 = 0.583	7.273
295.46 K, 304.8 kPa, x1 = 0.583	11.205
295.46 K, 309.4 kPa, x1 = 0.0906	6.711
295.46 K, 410.8 kPa, x1 = 0.583	15.457
295.46 K, 411.3 kPa, x1 = 0.0906	9.102
295.47 K, 104.2 kPa, x1 = 0.0906	2.174
295.47 K, 209.6 kPa, x1 = 0.0906	4.463
295.47 K, 517.9 kPa, x1 = 0.0906	11.713
295.47 K, 624.6 kPa, x1 = 0.583	24.759
295.48 K, 105.6 kPa, x1 = 0.8116	4.43
295.48 K, 198.1 kPa, x1 = 0.8116	8.481
295.48 K, 304 kPa, x1 = 0.8116	13.338
295.48 K, 403.2 kPa, x1 = 0.8116	18.133
295.48 K, 629.5 kPa, x1 = 0.0906	14.594
295.5 K, 514.3 kPa, x1 = 0.8116	23.825
300.2 K, 668.8 kPa, x1 = 1	36.434
300.21 K, 108 kPa, x1 = 1	5.039
300.21 K, 218.9 kPa, x1 = 1	10.489
300.21 K, 324 kPa, x1 = 1	15.933
300.21 K, 439.4 kPa, x1 = 1	22.291
300.21 K, 545.8 kPa, x1 = 1	28.564
300.21 K, 702.5 kPa, x1 = 0.0906	16.204
300.23 K, 569.7 kPa, x1 = 0.8116	26.154
300.24 K, 599.9 kPa, x1 = 0.0906	13.531
300.24 K, 701 kPa, x1 = 0.583	27.648
300.25 K, 190.5 kPa, x1 = 0.0906	3.98
300.25 K, 392.5 kPa, x1 = 0.8116	17.228
300.25 K, 396.6 kPa, x1 = 0.0906	8.595
300.25 K, 489.8 kPa, x1 = 0.8116	22.015
300.25 K, 506.5 kPa, x1 = 0.0906	11.208
300.25 K, 600.3 kPa, x1 = 0.583	23.086
300.26 K, 102.6 kPa, x1 = 0.583	3.557
300.26 K, 104.5 kPa, x1 = 0.0906	2.152
300.26 K, 106.3 kPa, x1 = 0.8116	4.378
300.26 K, 200.3 kPa, x1 = 0.583	7.077
300.26 K, 298.9 kPa, x1 = 0.583	10.761
300.26 K, 300 kPa, x1 = 0.0906	6.389
300.26 K, 301.1 kPa, x1 = 0.8116	12.94
300.26 K, 506.5 kPa, x1 = 0.583	19.062
300.27 K, 198.3 kPa, x1 = 0.8116	8.334
300.27 K, 400.3 kPa, x1 = 0.583	14.716
